Assay results from ChEMBL document CHEMBL1671732, “No evidence for induction of ABC transporters in peripheral blood mononuclear cells in humans after 14 days of efavirenz treatment” (Antimicrob Agents Chemother, 2010).

How the values were obtained:
[1] = Half life in healthy human plasma at 400 mg, po measured on day 1 post dose by liquid chromatography-tandem mass spectrometry; type: ADME, organism-based
[2] = Apparent oral clearance in healthy human plasma at 400 mg, po qd for 14 days by liquid chromatography-tandem mass spectrometry; type: ADME, organism-based
Homo sapiens [3] = assay: Volume of distribution in healthy human plasma at 400 mg, po qd for 14 days by liquid chromatography-tandem mass spectrometry; type: ADME, organism-based; conditions: in vivo, 336 h
[4] = Apparent oral clearance in healthy human plasma at 400 mg, po measured on day 1 post dose by liquid chromatography-tandem mass spectrometry; type: ADME, organism-based
Homo sapiens [5] = assay: Volume of distribution in healthy human plasma at 400 mg, po measured on day 1 post dose by liquid chromatography-tandem mass spectrometry; type: ADME, organism-based; conditions: in vivo
[6] = Tmax in healthy human plasma at 400 mg, po measured on day 1 post dose by liquid chromatography-tandem mass spectrometry; type: ADME, organism-based
[7] = Tmax in healthy human plasma at 400 mg, po qd for 14 days by liquid chromatography-tandem mass spectrometry; type: ADME, organism-based
[8] = Cmax in healthy human plasma at 400 mg, po measured on day 1 post dose by liquid chromatography-tandem mass spectrometry; type: ADME, organism-based; set-up: dose 400 mg, route oral
[9] = Cmax in healthy human plasma at 400 mg, po qd for 14 days by liquid chromatography-tandem mass spectrometry; type: ADME, organism-based; set-up: dose 400 mg, route oral
[10] = Half life in healthy human plasma at 400 mg, po qd for 14 days by liquid chromatography-tandem mass spectrometry; type: ADME, organism-based
[11] = Ratio of drug concentration in PBMCs to plasma of healthy human administered at 400 mg, po measured after 24 hrs on day 1 post dose; type: ADME, organism-based, PBMC
[12] = Ratio of drug concentration in PBMCs to plasma of healthy human administered at 400 mg, po measured after 5 hrs on day 1 post dose; type: ADME, organism-based, PBMC
[13] = Ratio of drug concentration in PBMCs to plasma of healthy human administered at 400 mg, po qd for 14 days measured after 5 hrs post last dose; type: ADME, organism-based, PBMC
[14] = Drug concentration in PBMCs of healthy human at 400 mg, po measured after 5 hrs on day 1 post dose by liquid chromatography-tandem mass spectrometry; type: ADME, organism-based, PBMC; conditions: read-out: Drug uptake
[15] = Drug concentration in PBMCs of healthy human at 400 mg, po ad for 14 days measured after 5 hrs post last dose by liquid chromatography-tandem mass spectrometry; type: ADME, organism-based, PBMC; conditions: read-out: Drug uptake
[16] = Drug concentration in PBMCs of healthy human at 400 mg, po measured after 24 hrs on day 1 post dose by liquid chromatography-tandem mass spectrometry; type: ADME, organism-based, PBMC; conditions: read-out: Drug uptake
[17] = Drug concentration in PBMCs of healthy human at 400 mg, po ad for 14 days measured after 24 hrs post last dose by liquid chromatography-tandem mass spectrometry; type: ADME, organism-based, PBMC; conditions: read-out: Drug uptake
Plasma [18] = assay: Fraction unbound in healthy human plasma at 400 mg, po measured on day 1 post dose by liquid chromatography-tandem mass spectrometry; type: ADME, organism-based; conditions: in vivo
Plasma [19] = assay: Fraction unbound in healthy human plasma at 400 mg, po qd for 14 days by liquid chromatography-tandem mass spectrometry; type: ADME, organism-based; conditions: in vivo, 336 h
Homo sapiens [20] = assay: Reduction in ABCB1 mRNA expression in healthy human at 400 mg, po qd for 14 days by RT-PCR; type: ADME, organism-based; conditions: in vivo, 336 h
Homo sapiens [21] = assay: Reduction in ABCC1 mRNA expression in healthy human at 400 mg, po qd for 14 days by RT-PCR; type: ADME, organism-based; conditions: in vivo, 336 h
Homo sapiens [22] = assay: Reduction in ABCC2 mRNA expression in healthy human at 400 mg, po qd for 14 days by RT-PCR; type: ADME, organism-based; conditions: in vivo, 336 h
Homo sapiens [23] = assay: Effect on P-gp activity in PBMCs isolated from healthy human receiving compound dose at 400 mg, po qd for 14 days by rhodamine -123 efflux assay; type: ADME, organism-based; conditions: in vivo, 336 h
[24] = Ratio of drug concentration in PBMCs to plasma of healthy human administered at 400 mg, po qd for 14 days measured after 24 hrs post last dose; type: ADME, organism-based, PBMC

half-life [1]: 78.7 h | CL/F [2]: 148 mL/min | Vd (Homo sapiens [3]): 401.6 L | CL/F [4]: 70.7 mL/min | Vd (Homo sapiens [5]): 462.8 L | Tmax [6]: 2.3 h | Tmax [7]: 2.2 h | Cmax [8]: 2740 ng/mL | Cmax [9]: 3760 ng/mL | half-life [10]: 33 h | Kp at 24 h [11]: 1.53 | Kp at 5 h [12]: 1.63 | Kp at 5 h [13]: 1.76 | concentration at 5 h [14]: 1470 ng/mL | concentration at 5 h [15]: 3600 ng/mL | concentration at 24 h [16]: 974 ng/mL | concentration at 24 h [17]: 2030 ng/mL | Fu (Plasma [18]): 0.47% | Fu (Plasma [19]): 0.52% | Kp at 24 h [24]: 1.36
SMILES: O=C1Nc2ccc(Cl)cc2[C@@](C#CC2CC2)(C(F)(F)F)O1 [EFAVIRENZ]
Activity (Homo sapiens [20]): Non-toxic | Activity (Homo sapiens [21]): Non-toxic | Activity (Homo sapiens [22]): Non-toxic | Activity (Homo sapiens [23]): Non-toxic
